Test results as given in PubChem BioAssay AID192 (DTP/NCI, 2004).
Values joined by “and” are separate entries in the source; they are usually repeats but may differ in a detail not shown here. Equal entries are not always repeated. Inconclusive results and toxic doses are left out. The calls were made as follows: active = survival T/C of 150% or more; inactive = T/C below 125% in these data.

Tested on: BDF1 mice, B16 melanoma ip, median survival T/C
Experiment: NCI In Vivo Anticancer Drug Screen. Data for tumor model B16 Melanoma (intraperitoneal) in B6D2F1 (BDF1) mice
Conditions: endpoint: median survival time, higher = longer survival
Summary of the method: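 In this screen, activity was judged from survival or tumor size in treated versus vehicle-treated tumor-bearing mice, reported as T/C.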

[1] = dose: 50.0 mg/kg/injection, schedule: Q01DX009 (ip), vehicle: saline with Tween-80
[2] = dose: 0.75 mg/kg/injection, schedule: Q01DX009 (ip), vehicle: Klucel (hydroxypropylcellulose) (HPC)

Measured: T/C

CC1CCCN(c2ccc([N+](=O)[O-])cc2[N+](=O)[O-])C1 (centres undefined)
inactive: dose: 100.0 mg/kg/injection, schedule: Q01DX009 (ip), vehicle: Klucel (hydroxypropylcellulose) (HPC) 93 % of control | dose: 400.0 mg/kg/injection, schedule: Q01DX009 (ip), vehicle: Klucel (hydroxypropylcellulose) (HPC) 100 % of control

CCOC(=O)C(Cc1ccc(Cl)c(Cl)c1)(Cc1ccc(Cl)c(Cl)c1)C(=O)OCC
inactive: dose: 12.5 mg/kg/injection, schedule: Q01DX009 (ip), vehicle: saline with Tween-80 99 % of control | dose: 25.0 mg/kg/injection, schedule: Q01DX009 (ip), vehicle: saline with Tween-80 97 % of control | [1] 94 % of control

Cc1ccc(S(=O)(=O)Oc2ccc(-c3ccc(OS(=O)(=O)c4ccc(C)cc4)cc3)cc2)cc1
inactive: [1] 105 % of control | dose: 100.0 mg/kg/injection, schedule: Q01DX009 (ip), vehicle: saline with Tween-80 90 % of control

Cc1c(N=O)c(=O)n(-c2ccccc2)n1C
inactive: dose: 100.0 mg/kg/injection, schedule: Q04DX003 (ip), vehicle: Klucel (hydroxypropylcellulose) (HPC) 100 % of control | dose: 200.0 mg/kg/injection, schedule: Q04DX003 (ip), vehicle: Klucel (hydroxypropylcellulose) (HPC) 100 % of control | dose: 400.0 mg/kg/injection, schedule: Q04DX003 (ip), vehicle: Klucel (hydroxypropylcellulose) (HPC) 106 % of control

Cc1cc(O)c2c(c1O)C(=O)c1cccc(O)c1C2=O
inactive: [2] 92 % of control | dose: 1.5 mg/kg/injection, schedule: Q01DX009 (ip), vehicle: Klucel (hydroxypropylcellulose) (HPC) 87 % of control

Cc1ccc([I+]c2ccc(C)cc2C)c(C)c1
inactive: dose: 0.18 mg/kg/injection, schedule: Q01DX009 (ip), vehicle: Klucel (hydroxypropylcellulose) (HPC) 114 % of control | dose: 0.37 mg/kg/injection, schedule: Q01DX009 (ip), vehicle: Klucel (hydroxypropylcellulose) (HPC) 92 % of control | [2] 87 % of control | dose: 6.0 mg/kg/injection, schedule: Q01DX009 (ip), vehicle: Klucel (hydroxypropylcellulose) (HPC) 90 % of control

CC(=O)OC1COC(NC(=O)N(CCCl)N=O)C(OC(C)=O)C1OC(C)=O (centres undefined)
inactive: dose: 0.18 mg/kg/injection, schedule: Q01DX009 (ip), vehicle: saline with Tween-80 106 % of control | dose: 0.37 mg/kg/injection, schedule: Q01DX009 (ip), vehicle: saline with Tween-80 118 % of control | dose: 0.39 mg/kg/injection, schedule: Q01DX009 (ip), vehicle: saline with Tween-80 114 % of control
active: dose: 0.2 mg/kg/injection, schedule: Q01DX009 (ip), vehicle: saline with Tween-80 155 % of control | dose: 1.5 mg/kg/injection, schedule: Q01DX009 (ip), vehicle: saline with Tween-80 168 % of control | dose: 1.56 mg/kg/injection, schedule: Q01DX009 (ip), vehicle: saline with Tween-80 170 % of control | dose: 3.0 mg/kg/injection, schedule: Q01DX009 (ip), vehicle: saline with Tween-80 173 % of control | dose: 3.12 mg/kg/injection, schedule: Q01DX009 (ip), vehicle: saline with Tween-80 209 % of control | dose: 6.0 mg/kg/injection, schedule: Q01DX009 (ip), vehicle: saline with Tween-80 162 % of control | dose: 6.25 mg/kg/injection, schedule: Q01DX009 (ip), vehicle: saline with Tween-80 190 % of control

O=C(NCCCN1CCOCC1)C(Oc1ccccc1)Oc1ccccc1
inactive: dose: 0.09 mg/kg/injection, schedule: Q01DX009 (ip), vehicle: Klucel (hydroxypropylcellulose) (HPC) 88 % of control | dose: 0.19 mg/kg/injection, schedule: Q01DX009 (ip), vehicle: Klucel (hydroxypropylcellulose) (HPC) 92 % of control | dose: 0.78 mg/kg/injection, schedule: Q01DX009 (ip), vehicle: Klucel (hydroxypropylcellulose) (HPC) 87 % of control | dose: 1.56 mg/kg/injection, schedule: Q01DX009 (ip), vehicle: Klucel (hydroxypropylcellulose) (HPC) 88 % of control | dose: 12.5 mg/kg/injection, schedule: Q01DX009 (ip), vehicle: Klucel (hydroxypropylcellulose) (HPC) 92 % of control | dose: 25.0 mg/kg/injection, schedule: Q01DX009 (ip), vehicle: Klucel (hydroxypropylcellulose) (HPC) 86 % of control and 103 % of control | dose: 50.0 mg/kg/injection, schedule: Q01DX009 (ip), vehicle: Klucel (hydroxypropylcellulose) (HPC) 90 % of control

Nc1ncn(C2CC(O)C(CO)O2)c(=O)n1 (centres undefined)
inactive: dose: 0.01 mg/kg/injection, schedule: Q01DX009 (ip), vehicle: Klucel (hydroxypropylcellulose) (HPC) 98 % of control | dose: 0.03 mg/kg/injection, schedule: Q01DX009 (ip), vehicle: Klucel (hydroxypropylcellulose) (HPC) 109 % of control | dose: 0.05 mg/kg/injection, schedule: Q01DX009 (ip), vehicle: Klucel (hydroxypropylcellulose) (HPC) 99 % of control | dose: 0.06 mg/kg/injection, schedule: Q01DX009 (ip), vehicle: Klucel (hydroxypropylcellulose) (HPC) 98 % of control | dose: 0.1 mg/kg/injection, schedule: Q01DX009 (ip), vehicle: Klucel (hydroxypropylcellulose) (HPC) 100 % of control | dose: 0.12 mg/kg/injection, schedule: Q01DX009 (ip), vehicle: Klucel (hydroxypropylcellulose) (HPC) 105 % of control | dose: 0.2 mg/kg/injection, schedule: Q01DX009 (ip), vehicle: Klucel (hydroxypropylcellulose) (HPC) 100 % of control | dose: 0.25 mg/kg/injection, schedule: Q01DX009 (ip), vehicle: Klucel (hydroxypropylcellulose) (HPC) 102 % of control | dose: 0.4 mg/kg/injection, schedule: Q01DX009 (ip), vehicle: Klucel (hydroxypropylcellulose) (HPC) 105 % of control | dose: 0.5 mg/kg/injection, schedule: Q01DX009 (ip), vehicle: Klucel (hydroxypropylcellulose) (HPC) 104 % of control | dose: 0.8 mg/kg/injection, schedule: Q01DX009 (ip), vehicle: Klucel (hydroxypropylcellulose) (HPC) 122 % of control
